Assay results from patent US7659270B2, “Hepatitis C virus inhibitors” (Bristol-Myers Squibb Company, priority 2006, dated 2010).

The compounds below were run on HCV 1b-377-neo replicon cells (assay: HCV replicon assay (HCV 1b-377-neo replicon cells)). Conditions: Hepatitis C virus, read-out: EC50 range against HCV 1b (Range).
Assay type: cell-based, Hepatitis C virus genotype 1b
Description: An HCV Replion assay was utilized in the present disclosure, and was prepared, conducted and validated as described in commonly owned PCT/US2006/022197 and in O'Boyle et. al. Antimicrob Agents Chemother. April 2005;49(4): 1346-53.
HCV 1b-377-neo replicon cells were used to test the currently described compound series as well as cells resistant to compound A due to a Y2065H mutation in NS5A (described in application PCT/US2006/022197). The compounds tested were determined to have more than 10-fold less inhibitory activity on cells resistant to compound A than wild-type cells indicating a related mechanism of action between the two compound series. Thus, the compounds of the present disclosure can be effective to inhibit the function of the HCV NS5A protein and are understood to be as effective in combinations as previously described in application PCT/US2006/022197 and commonly owned WO/04014852. Further, the compounds of the present disclosure can be effective against the HCV 1b genotype. It should also be understood that the compounds of the present disclosure can inhibit multiple genotypes of HCV. […] In one embodiment compounds of the present disclosure are active against the 1a, 1b, 2a, 2b, 3a, 4a, and 5a genotypes.

| SMILES | EC50 |
| --- | --- |
| CN(C)[C@@H](C(=O)N1CCC[C@H]1c1ncc(-c2ccc(-c3ccc(-c4cnc([C@@H]5CCCN5C(=O)[C@@H](c5ccccc5)N(C)C)[nH]4)cc3)cc2)[nH]1)c1ccccc1 [Example 1, (1R,1′R)-2,2′-(4,4′-biphenyldiylbis(1H-imidazole-5,2-diyl(2S)-2,1-pyrrolidinediyl))bis(N,N-dimethyl-2-oxo-1-phenylethanamine)] | 10 to 999 pM |
| COC(=O)N[C@@H](C(=O)N(C)[C@@H](C)c1ncc(-c2ccc(-c3ccc(-c4cnc([C@H](C)N(C)C(=O)[C@H](NC(=O)OC)c5ccccc5)[nH]4)cc3)cc2)[nH]1)c1ccccc1 [Example 24-18-1, dimethyl (4,4′-biphenyl-diylbis(1H-imidazole-5,2-diyl(1S)-1,1-ethane-diyl(methyli-mino)(1R)-2-oxo-1-phenyl-2,1-ethane-diyl)))biscar-bamate] | 10 to 999 pM |
| C[C@@H](c1ncc(-c2ccc(-c3ccc(-c4cnc([C@H](C)N(C)C(=O)[C@@H](c5ccccc5)N(C)C)[nH]4)cc3)cc2)[nH]1)N(C)C(=O)[C@@H](c1ccccc1)N(C)C [Example 24-18-2, (2R,2′R)-N,N′-(4,4′-biphenyl-diylbis(1H-imidazole-5,2-diyl(1S)-1,1-ethane-diyl))bis(2-(dimethyl-amino)-N-methyl-2-phenyl-acetamide)] | 10 to 999 pM |
| C[C@@H](c1ncc(-c2ccc(-c3ccc(-c4cnc([C@H](C)N(C)C(=O)[C@@H](c5ccccc5)N5CCCCC5)[nH]4)cc3)cc2)[nH]1)N(C)C(=O)[C@@H](c1ccccc1)N1CCCCC1 [Example 24-18-3, (2R,2′R)-N,N′-(4,4′-biphenyl-diylbis(1H-imidazole-5,2-diyl(1S)-1,1-ethane-diyl))bis(N-meth-yl-2-phenyl-2-(1-piperi-dinyl)acet-amide)] | 10 to 999 pM |
| COC(=O)N[C@@H](C(=O)N(C)[C@@H](C)c1ncc(-c2ccc(-c3ccc(-c4cnc([C@@H]5CCCN5C(=O)[C@H](NC(=O)OC)c5ccccc5)[nH]4)cc3)cc2)[nH]1)c1ccccc1 [Example 24-18-4, methyl ((1R)-2-((2S)-2-(5-(4′-(2-((1S)-1-(((2R)-2-((methoxy-carbonyl)a-mino)-2-phenyl-acetyl)(meth-yl)ami-no)ethyl)-1H-imidazol-5-yl)-4-bi-phenylyl)-1H-imidazol-2-yl)-1-pyrrolidi-nyl)-2-oxo-1-phenyl-ethyl)carba-mate] | 10 to 999 pM |
| C[C@@H](c1ncc(-c2ccc(-c3ccc(-c4cnc([C@@H]5CCCN5C(=O)[C@@H](c5ccccc5)N(C)C)[nH]4)cc3)cc2)[nH]1)N(C)C(=O)[C@@H](c1ccccc1)N(C)C [Example 24-18-5, (2R)-2-(dimethyl-amino)-N-((1S)-1-(5-(4′-(2-((2S)-1-((2R)-2-(dimethyl-amino)-2-phenyl-acetyl)-2-pyrroli-dinyl)-1H-imida-zol-5-yl)-4-biphenyl-yl)-1H-imidazol-2-yl)ethyl)-N-methyl-2-phenyl-acetamide] | 10 to 999 pM |
| COC(=O)N[C@@H](C(=O)N1CCC[C@H]1c1ncc(-c2ccc(-c3ccc(-c4cnc([C@@H]5CCCN5C(=O)Cc5ccccc5)[nH]4)cc3)cc2)[nH]1)c1ccccc1 [Example 28, methyl((1R)-2-oxo-1-phenyl-2-((2S)-2-(5-(4′-(2-((2S)-1-(phenylacetyl)-2-pyrrolidinyl)-1H-imidazol-5-yl)-4-biphenylyl)-1H-imidazol-2-yl)-1-pyrrolidinyl)ethyl)carbamate] | 1000 to 99000 pM |
| Cc1cc(-c2cnc([C@@H]3CCCN3C(=O)[C@@H](c3ccccc3)N(C)C)[nH]2)ccc1-c1ccc(-c2cnc([C@@H]3CCCN3C(=O)[C@@H](c3ccccc3)N(C)C)[nH]2)cc1C [Example 121, (1R,1′R)-2,2′-((2,2′-dimethyl-4,4′-biphenyldiyl)bis(1H-imidazole-5,2-diyl(2S)-2,1-pyrrolidinediyl))bis(N,N-dimethyl-2-oxo-1-phenylethanamine)] | 10 to 999 pM |
| COC(=O)N[C@@H](C(=O)N1CCC[C@H]1c1ncc(-c2ccc(-c3ccc(-c4cnc([C@@H]5CCCN5C(=O)Cc5cccnc5)[nH]4)cc3C)cc2)[nH]1)c1ccccc1 [Example 127, methyl ((1R)-2-((2S)-2-(5-(2′-methyl-4′-(2-((2S)-1-(3-pyridinylacetyl)-2-pyrrolidinyl)-1H-imidazol-5-yl)-4-biphenylyl)-1H-imidazol-2-yl)-1-pyrrolidinyl)-2-oxo-1-phenylethyl)carbamate] | 10 to 999 pM |
| COC(=O)N[C@@H](C(=O)N1CCC[C@H]1c1ncc(-c2ccc(-c3ccc(-c4cnc([C@@H]5CCCN5C(=O)[C@@H]5CCCO5)[nH]4)cc3C)cc2)[nH]1)c1ccccc1 [Example 128, methyl ((1R)-2-((2S)-2-(5-(2′-methyl-4′-(2-((2S)-1-((2S)-tetrahydro-2-furanylcarbonyl)-2-pyrrolidinyl)-1H-imidazol-5-yl)-4-biphenylyl)-1H-imidazol-2-yl)-1-pyrrolidinyl)-2-oxo-1-phenylethyl)carbamate] | 10 to 999 pM |
| CN(C)[C@@H](C(=O)N1CCC[C@H]1c1ncc(-c2ccc(-c3ccc(-c4cnc([C@@H]5CCCN5C(=O)[C@@H](c5ccccc5)N(C)C)[nH]4)cc3C(F)(F)F)cc2)[nH]1)c1ccccc1 [Example 130, (1R,1′R)-2,2′-((2-(trifluoromethyl)-4,4′-biphenyldiyl)bis(1H-imidazole-5,2-diyl(2S)-2,1-pyrrolidinediyl))bis(N,N-dimethyl-2-oxo-1-phenylethanamine)] | 10 to 999 pM |
| COC(=O)N[C@@H](C(=O)N(C)[C@@H](C)c1ncc(-c2ccc(-c3ccc(-c4cnc([C@@H]5CCCN5C(=O)[C@@H](c5ccccc5)N(C)C)[nH]4)cc3)cc2)[nH]1)c1ccccc1 [Example 131.1-1, methyl((1R)-2-(((1S)-1-(5-(4′-(2-((2S)-1-((2R)-2-(dimethylamino)-2-phenylacetyl)-2-pyrrolidinyl)-1H-imidazol-5-yl)-4-biphenylyl)-1H-imidazol-2-yl)ethyl)(methyl)amino)-2-oxo-1-phenylethyl)carbamate] | 10 to 999 pM |
| COC(=O)N[C@@H](C(=O)N(C)[C@@H](C)c1ncc(-c2ccc(-c3ccc(-c4cnc([C@@H]5CCCN5C(=O)[C@@H](c5ccccc5)N5CCCCC5)[nH]4)cc3)cc2)[nH]1)c1ccccc1 [Example 131.1-2, methyl((1R)-2-(methyl((1S)-1-(5-(4′-(2-((2S)-1-((2R)-2-phenyl-2-(1-piperidinyl)acetyl)-2-pyrrolidinyl)-1H-imidazol-5-yl)-4-biphenylyl)-1H-imidazol-2-yl)ethyl)amino)-2-oxo-1-phenylethyl)carbamate] | 10 to 999 pM |
| CN(C)[C@@H](C(=O)N1CCC[C@H]1c1ncc(-c2ccc(-c3ccc(-c4cnc([C@@H]5CCCN5C(=O)[C@@H](c5ccccc5)N(C)C)[nH]4)cn3)cc2)[nH]1)c1ccccc1 [Example 132, (1R)-2-((2S)-2-(5-(6-(4-(2-((2S)-1-((2R)-2-(dimethylamino)-2-phenylacetyl)-2-pyrrolidinyl)-1H-imidazol-5-yl)phenyl)-3-pyridinyl)-1H-imidazol-2-yl)-1-pyrrolidinyl)-N,N-dimethyl-2-oxo-1-phenylethanamine] | 10 to 999 pM |
| O=C([C@H](O)c1ccccc1)N1CCC[C@H]1c1ncc(-c2ccc(-c3ccc(-c4cnc([C@@H]5CCCN5C(=O)[C@H](O)c5ccccc5)[nH]4)cn3)cc2)[nH]1 [Example 133, (1R)-2-((2S)-2-(5-(6-(4-(2-((2S)-1-((2R)-2-hydroxy-2-phenylacetyl)-2-pyrrolidinyl)-1H-imidazol-5-yl)phenyl)-3-pyridinyl)-1H-imidazol-2-yl)-1-pyrrolidinyl)-2-oxo-1-phenylethanol] | 1000 to 99000 pM |
| COC(=O)N[C@@H](C(=O)N1CCC[C@H]1c1ncc(-c2ccc(-c3ccc(-c4cnc([C@@H]5CCCN5C(=O)[C@H](NC(=O)OC)c5ccccc5)[nH]4)cn3)cc2)[nH]1)c1ccccc1 [Example 134, methyl ((1R)-2-((2S)-2-(5-(6-(4-(2-((2S)-1-((2R)-2-((methoxycarbonyl)amino)-2-phenylacetyl)-2-pyrrolidinyl)-1H-imidazol-5-yl)phenyl)-3-pyridinyl)-1H-imidazol-2-yl)-1-pyrrolidinyl)-2-oxo-1-phenylethyl)carbamate] | 10 to 999 pM |

Same assay, conditions: listed as 151 isomer 1, read-out: EC50 range against HCV 1b (Range)

| SMILES | EC50 |
| --- | --- |
| CN(C)[C@@H](C(=O)N1CCC[C@H]1c1nc(-c2ccc(-c3ccc(-c4cn(C)c([C@@H]5CCCN5C(=O)[C@@H](c5ccccc5)N(C)C)n4)cc3)cc2)cn1C)c1ccccc1 (single isomer, unassigned) [Example 151 isomer 1] | 1000 to 99000 pM |

Same assay, conditions: listed as 151 isomer 2, read-out: EC50 range against HCV 1b (Range)

| SMILES | EC50 |
| --- | --- |
| CN(C)[C@@H](C(=O)N1CCC[C@H]1c1nc(-c2ccc(-c3ccc(-c4cn(C)c([C@@H]5CCCN5C(=O)[C@@H](c5ccccc5)N(C)C)n4)cc3)cc2)cn1C)c1ccccc1 (single isomer, unassigned) [Example 151 isomer 2] | 100000 to 999000 pM |

Same assay, conditions: read-out: EC50 range against HCV 1b (Range)

| SMILES | EC50 |
| --- | --- |
| COC(=O)N[C@@H](C(=O)N1CCC[C@H]1c1ncc(-c2ccc(-c3ccc(-c4cnc([C@@H]5CCCN5C(=O)[C@@H](c5ccccc5)N(C)C)[nH]4)cc3C)cc2)[nH]1)c1ccccc1 [Example 126, methyl ((1R)-2-((2S)-2-(5-(4′-(2-((2S)-1-((2R)-2-(dimethylamino)-2-phenylacetyl)-2-pyrolidinyl)-1H-imidazol-5-yl)-2′-methyl-4-biphenylyl)-1H-imidazol-2-yl)-1-pyrrolidinyl)-2-oxo-1-phenylethyl)carbamate] | 10 to 999 pM |
